Measurements: US20240197652A1, “KETAMINE IN THE TREATMENT OF […]” (Awakn LS Europe Holdings Limited, priority 2021, published 2024)

What was measured:
Type in all cases: in vivo, human
[1] = test system: subjects with gambling disorder; experiment: Adverse events, Ketamine Side Effect Tool (KSET), Example 7; settings: five gambling disorder subjects; 100 mg racemic ketamine sublingual
Protocol: Adverse events were assessed with the Ketamine Side Effect Tool (KSET).

subjects with CSBD = experiment: Adverse events, KSET, Example 10; settings: three CSBD subjects; 100 mg racemic ketamine sublingual
[2] = test system: subjects with gaming disorder; experiment: Craving for Gaming Questionnaire (CGQ), Example 9; settings: for CGQ score at 2-week follow up: after 100 mg racemic ketamine sublingual; for CGQ score, pre-administration: baseline before 100 mg racemic ketamine sublingual; for % change in Craving for Gaming Questionnaire: pre-administration to 2-week follow up, 100 mg racemic ketamine sublingual
Protocol: A study was completed on ketamine to treat gaming disorder. Subjects were assessed for gaming disorder using the Internet Gaming Disorder Scale (IGDS) and were included if they received an IGDS score greater than 3. Three subjects in total were included (IG1-IG3). All three were administered sublingual lozenges comprising 100 mg of racemic ketamine.
The treatment protocol commenced in the same manner as disclosed in the ketamine in subjects with gambling disorder study completed in EXAMPLE 7, with the exceptions as follow: No behavioural tasks were completed. Self-report measures completed during EXAMPLE 9 included Social Phobia Inventory (SPIN), the Craving for Gaming Questionnaire (CGQ), and Generalised Anxiety Disorder-7 (GAD-7) the Sensitivity to Reward and Punishment Scale, and the Childhood Trauma Questionnaire, the Morningness-Eveningness Questionnaire (MEQ).

[3] = test system: subjects of EXAMPLES 7-10; experiment: Beck Depression Inventory (BDI), subjects of Examples 7-10; settings: for BDI Score at the one-week follow up / Depression Severity at the One Week Follow Up (BDI): after 100 mg racemic ketamine sublingual; for BDI Score pre-treatment / Depression Severity Pre-Treatment (BDI): baseline before 100 mg racemic ketamine sublingual; for % Change in BDI score: pre-treatment to one-week follow up, 100 mg racemic ketamine sublingual
Protocol: The study spanned a total of 30 days (not counting initial contact and prescreening). Prescreening of all subjects was conducted by phone, and subjects recorded self-report measures, including the Sensitivity to Punishment and Sensitivity to Reward Questionnaire (SPSRQ) and the Gambling Related Cognitions Questionnaire. Prior to beginning treatment, each subject completed the Beck Depression Inventory (BDI) to determine a baseline depression score. Total scores of 0-13 are minimal, 14-19 are mild, 20-28 are moderate, and 29-63 are severe (Beck, Steer, and Brown, 1996).

[4] = Plasma ketamine, HNK and norketamine levels, CSBD subjects (Example 10); settings: analyte = label; for peak plasma concentration: 100 mg racemic ketamine sublingual; for time of peak plasma concentration: post-administration of 100 mg racemic ketamine sublingual
Protocol: A study was completed on the use of ketamine to treat CSBD. Subjects were assessed for CSBD using the Problematic Pornography Use Scale (PPUS) and were included if they received an PPUS score greater than 3. Three subjects in total were included (CSB1-CSB3). All three were administered sublingual lozenges comprising 100 mg of racemic ketamine.
Blood samples were collected from all three subjects. Blood samples were analysed to determine ketamine and ketamine metabolite levels. Assessments were conducted as below.
The treatment protocol commenced in the same way as disclosed in the ketamine in subjects with gambling disorder study completed in EXAMPLE 7, with the exceptions outlined as follows: No behavioural tasks were completed. Self-report measures completed during EXAMPLE 10 included the Emotional Intimacy Measure, the Childhood Trauma Questionnaire, the Generalised Anxiety Disorder-7 (GAD-7), the Morningness-Eveningness Questionnaire (MEQ), and the Problematic Pornography Questionnaire (PPQ), the Acceptance and Action Questionnaire, and the Psychological and Interpersonal Relationship Scales (PAIRS).

[5] = test system: subjects with binge eating disorder; experiment: Adverse events, KSET, Example 8; settings: three binge eating disorder subjects; 100 mg racemic ketamine sublingual
[6] = subject BE1 (binge eating disorder)
[7] = subject BE2 (binge eating disorder)
[8] = subject BE3 (binge eating disorder)

## CNC1(c2ccccc2Cl)CCCCC1=O (racemic) [ketamine, 2-(2-chlorophenyl)-2-(methylamino)-cyclohexanone]
[1]
  course of adverse events: All adverse events were transient, and resolved two hours post-lozenge
  overall tolerability: well-tolerated, with no drop-outs
  unexpected adverse reactions (KSET): No unexpected adverse reactions were observed
Subjects with CSBD
  course of adverse events: All adverse events were transient, and resolved two hours post-lozenge
  overall tolerability: well-tolerated, with no drop-outs
  unexpected adverse reactions (KSET): No unexpected adverse reactions were observed
[2]; subject IG1
  CGQ score at 2-week follow up: 28
  CGQ score, pre-administration: 30
  % change in Craving for Gaming Questionnaire: −6.67%
[2]; subject IG2
  CGQ score at 2-week follow up: 15
  CGQ score, pre-administration: 31
  % change in Craving for Gaming Questionnaire: −51.61%
[2]; subject IG3
  CGQ score at 2-week follow up: 21
  CGQ score, pre-administration: 45
  % change in Craving for Gaming Questionnaire: −53.33%
[3]; [6]
  BDI Score at the one-week follow up: 2
  BDI Score pre-treatment: 9
  % Change in BDI score: −77.78%
[3]; [7]
  BDI Score at the one-week follow up: 15
  BDI Score pre-treatment: 19
  % Change in BDI score: −21.05%
[3]; [8]
  BDI Score at the one-week follow up: 1
  BDI Score pre-treatment: 21
  % Change in BDI score: −95.24%
[3]; subject BE3
  Depression Severity at the One Week Follow Up (BDI): Minimal (Total scores of 0-13 are minimal)
  Depression Severity Pre-Treatment (BDI): Moderate (20-28 are moderate)
[3]; subject CSB1 (CSBD)
  BDI Score at the one-week follow up: 9
  BDI Score pre-treatment: 24
  % Change in BDI score: −62.50%
[3]; subject CSB1
  Depression Severity at the One Week Follow Up (BDI): Minimal (Total scores of 0-13 are minimal)
  Depression Severity Pre-Treatment (BDI): Moderate (20-28 are moderate)
[3]; subject CSB2 (CSBD)
  BDI Score at the one-week follow up: 12
  BDI Score pre-treatment: 14
  % Change in BDI score: −14.29%
[3]; subject CSB2
  Depression Severity at the One Week Follow Up (BDI): Minimal (Total scores of 0-13 are minimal)
  Depression Severity Pre-Treatment (BDI): Mild (14-19 are mild)
[3]; subject CSB3 (CSBD)
  BDI Score at the one-week follow up: 7
  BDI Score pre-treatment: 19
  % Change in BDI score: −63.16%
[3]; subject CSB3
  Depression Severity at the One Week Follow Up (BDI): Minimal (Total scores of 0-13 are minimal)
  Depression Severity Pre-Treatment (BDI): Mild (14-19 are mild)
[3]; subject G1 (gambling disorder)
  BDI Score at the one-week follow up: 9
  BDI Score pre-treatment: 8
  % Change in BDI score: +12.5%
[3]; subject G2 (gambling disorder)
  BDI Score at the one-week follow up: 24
  BDI Score pre-treatment: 21
  % Change in BDI score: +14.29%
[3]; subject G3 (gambling disorder)
  BDI Score at the one-week follow up: 14
  BDI Score pre-treatment: 17
  % Change in BDI score: −17.65%
[3]; subject G4 (gambling disorder)
  BDI Score at the one-week follow up: 6
  BDI Score pre-treatment: 8
  % Change in BDI score: −25%
[3]; subject G5 (gambling disorder)
  BDI Score at the one-week follow up: 11
  BDI Score pre-treatment: 12
  % Change in BDI score: −8.33%
[3]; subject IG1 (gaming disorder)
  BDI Score at the one-week follow up: 10
  BDI Score pre-treatment: 15
  % Change in BDI score: −33.33%
[3]; subject IG1
  Depression Severity at the One Week Follow Up (BDI): Minimal (Total scores of 0-13 are minimal)
  Depression Severity Pre-Treatment (BDI): Mild (14-19 are mild)
[3]; subject IG2 (gaming disorder)
  BDI Score at the one-week follow up: 8
  BDI Score pre-treatment: 4
  % Change in BDI score: +100%
[3]; subject IG3 (gaming disorder)
  BDI Score at the one-week follow up: 9
  BDI Score pre-treatment: 10
  % Change in BDI score: −10%
[4]; subject CSB1
  peak plasma concentration: about 368 ng/ml
  time of peak plasma concentration: 70 min
[4]; subject CSB2
  peak plasma concentration: about 285 ng/ml
  time of peak plasma concentration: 30 min
[4]; subject CSB3
  peak plasma concentration: about 395 ng/mL
  time of peak plasma concentration: 50 min
[5]
  course of adverse events: All adverse events were transient, and resolved two hours post-lozenge
  overall tolerability: well-tolerated, with no drop-outs
  unexpected adverse reactions (KSET): no unexpected adverse reactions were observed
